Activity calls are given as the source filed them.
Columns and labels:
[1] = viability loss of HMLE_sh_eGFP cells – cell-based, luminescence, counter-screen for HMLE_sh_ECad selective toxicity project, dose response (AID 463074); assay type: functional, Homo sapiens;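 also: HMLE human mammary epithelial cells expressing control shRNA against eGFP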
[2] = Luminescence Cell-Based Dose Retest to Confirm Inhibitors of Cancer Stem Cells. [Related pubchem assays (depositor defined):AID2717, AID2721]; assay type: functional; conditions: Homo sapiens
[3] = Luminescence Cell-Based Dose Response HTS to Identify Activators of Luciferase Translation or Activity in H4 […] Cells. [Related pubchem assays: 1829 (Project Summary), 1814 (Primary HTS)]; assay type: functional
H4 = assay: Luminescence Cell-Based Dose Response HTS to Identify Activators of 5'UTR Stem-Loop Driven Prion Protein mRNA Translation in H4 Neuroglioblastoma Cells. [Related pubchem assays: 1829 (Project Summary), 1814 (Primary HTS)]; assay type: functional; conditions: Homo sapiens
[4] = viability loss in HepG2 hepatoma cells – cell-based, ATP luminescence, cherry-pick, activator set 2, cytotoxicity control, dose response (AID 1053143); assay type: functional
[5] = target: T1, Tyrosine-protein phosphatase non-receptor type 7 (Homo sapiens, UniProt P35236); assay type: functional
T1 sequence (P35236 whole entry): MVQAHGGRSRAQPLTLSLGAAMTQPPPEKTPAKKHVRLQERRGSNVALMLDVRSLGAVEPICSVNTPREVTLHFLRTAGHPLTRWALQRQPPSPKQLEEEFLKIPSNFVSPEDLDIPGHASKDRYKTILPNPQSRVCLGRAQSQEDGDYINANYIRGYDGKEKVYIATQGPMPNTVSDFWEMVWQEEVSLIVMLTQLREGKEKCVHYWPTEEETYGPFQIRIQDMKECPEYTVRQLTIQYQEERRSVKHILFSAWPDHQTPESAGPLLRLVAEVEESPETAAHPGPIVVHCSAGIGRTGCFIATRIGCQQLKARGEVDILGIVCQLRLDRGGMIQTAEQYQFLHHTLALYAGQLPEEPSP

[6] = target: T2, Tyrosine-protein phosphatase non-receptor type 22 (Homo sapiens, UniProt Q9Y2R2); assay type: functional
T2 sequence (Q9Y2R2 whole entry): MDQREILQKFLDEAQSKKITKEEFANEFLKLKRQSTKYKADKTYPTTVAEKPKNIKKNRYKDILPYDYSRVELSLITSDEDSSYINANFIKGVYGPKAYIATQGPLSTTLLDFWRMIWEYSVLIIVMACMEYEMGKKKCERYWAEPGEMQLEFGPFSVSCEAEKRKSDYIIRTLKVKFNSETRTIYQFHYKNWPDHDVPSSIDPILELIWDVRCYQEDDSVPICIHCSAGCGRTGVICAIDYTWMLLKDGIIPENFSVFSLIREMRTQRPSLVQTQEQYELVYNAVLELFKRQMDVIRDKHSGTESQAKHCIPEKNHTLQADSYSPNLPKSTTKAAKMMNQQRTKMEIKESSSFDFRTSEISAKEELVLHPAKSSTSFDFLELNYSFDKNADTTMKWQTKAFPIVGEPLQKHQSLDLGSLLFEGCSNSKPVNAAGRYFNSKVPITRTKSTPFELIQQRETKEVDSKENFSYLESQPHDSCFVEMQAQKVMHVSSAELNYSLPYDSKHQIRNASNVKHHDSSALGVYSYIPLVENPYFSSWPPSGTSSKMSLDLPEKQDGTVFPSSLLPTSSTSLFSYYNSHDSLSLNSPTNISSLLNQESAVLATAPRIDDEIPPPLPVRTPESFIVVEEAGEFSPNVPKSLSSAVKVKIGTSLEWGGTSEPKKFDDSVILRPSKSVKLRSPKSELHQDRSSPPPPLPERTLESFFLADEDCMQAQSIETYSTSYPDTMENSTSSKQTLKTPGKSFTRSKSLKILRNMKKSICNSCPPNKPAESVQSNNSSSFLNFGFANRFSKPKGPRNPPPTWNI

[7] = target: T2, Tyrosine-protein phosphatase non-receptor type 22; assay type: functional; remark: listed apart in the source
Cytochrome P450 2D6 = Cytochrome P450 2D6 (Homo sapiens, UniProt P10635);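 also: CYP2D6 member of a cytochrome P450 panel assay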
[8] = target: T3, Polyadenylate-binding protein 1 (Homo sapiens, UniProt P11940); assay: MLLE binding blockers, Cy5 peptide tracer – biochemical, fluorescence polarization, Cy5-PAM2 peptide, secondary, miRNA deadenylation inhibitor project, dose response (AID 602260); assay type: functional; conditions: read-out: IC50_Mean
[9] = target: T3, Polyadenylate-binding protein 1; assay: MLLE domain peptide-binding blockers, IC50 – biochemical, fluorescence polarization, FITC-PAM2 peptide, dose response (AID 602259); assay type: functional; conditions: read-out: IC50_Mean
[10] = target: T4, Alkaline phosphatase, tissue-nonspecific isozyme (Homo sapiens, UniProt P05186)
T4 sequence (P05186 whole entry): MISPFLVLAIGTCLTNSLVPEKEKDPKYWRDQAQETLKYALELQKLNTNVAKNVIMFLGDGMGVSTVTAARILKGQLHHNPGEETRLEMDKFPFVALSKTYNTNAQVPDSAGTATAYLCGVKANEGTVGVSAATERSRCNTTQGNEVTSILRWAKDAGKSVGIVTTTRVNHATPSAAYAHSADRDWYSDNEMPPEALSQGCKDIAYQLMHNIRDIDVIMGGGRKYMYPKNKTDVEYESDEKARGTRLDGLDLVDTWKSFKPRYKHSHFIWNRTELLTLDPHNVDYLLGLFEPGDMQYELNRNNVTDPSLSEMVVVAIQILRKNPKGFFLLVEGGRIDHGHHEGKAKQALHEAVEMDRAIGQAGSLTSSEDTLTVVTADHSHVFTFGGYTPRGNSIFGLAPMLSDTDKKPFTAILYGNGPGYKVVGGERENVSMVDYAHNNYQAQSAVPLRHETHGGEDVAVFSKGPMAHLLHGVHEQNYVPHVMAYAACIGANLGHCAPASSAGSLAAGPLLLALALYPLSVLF

[11] = MIN6 cell viability loss – mouse insulinoma, cytotoxicity control, dose response (AID 2122); assay type: functional;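 also: confirmatory high-throughput counterscreen run to flag cytotoxic compounds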
[12] = decrease of insulin promoter-GFP reporter – imaging, high-content screening, mouse beta cells (AID 1628); assay type: functional; conditions: MIN6
Cytochrome P450 2C19 = Cytochrome P450 2C19 (Homo sapiens, UniProt P33261); assay: Cytochrome panel assay with activity outcomes. Panel member name: p450-cyp2c19 Compounds with AC50 equal or less than 10 uM are considered active; assay type: functional; conditions: read-out: AC50
cells [13] = assay type: functional, cell-based
[14] = target: FAD-linked sulfhydryl oxidase ALR (Homo sapiens, UniProt P55789); assay: ALR-catalysed DTT oxidation blockers – biochemical, H2O2 detection, luminescence, cherry-pick, dose response (AID 493248)
Coagulation factor XII = Coagulation factor XII (Homo sapiens, UniProt P00748); assay type: functional;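 also: activated factor XIIa alpha cleaving a fluorogenic AMC peptide substrate; inhibitor potency from loss of enzyme activity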
Cytochrome P450 2C9 = Cytochrome P450 2C9 (Homo sapiens, UniProt P11712)
cells [15] = assay type: functional, cell-based; remark: listed apart in the source
CHO-K1 = assay: (§1) Counterscreen for antagonists of the orexin 1 receptor (OX1R; HCRTR1): Homogeneous time resolved fluorescence (HTRF)-based cell-based dose response assay to identify antagonists of the parental CHO-K1 cell line. [Related pubchem assays (depositor defined):AID434989, AID435008, AID463079, AID485270, AID492963, AID492964, AID492965, AID493232, AID504699, AID504701]; assay type: functional; conditions: Cricetulus griseus
[16] = target: T5, Orexin/Hypocretin receptor type 1 (Homo sapiens, UniProt O43613); assay: (§2) Fluorescence-based cell-based high throughput dose response assay for antagonists of the orexin 1 receptor (OX1R; HCRTR1). [Related pubchem assays (depositor defined):AID434989, AID435008, AID463079, AID485270, AID492963, AID492964, AID492965, AID493232, AID504717, AID504718]; assay type: functional
T5 sequence (O43613 whole entry): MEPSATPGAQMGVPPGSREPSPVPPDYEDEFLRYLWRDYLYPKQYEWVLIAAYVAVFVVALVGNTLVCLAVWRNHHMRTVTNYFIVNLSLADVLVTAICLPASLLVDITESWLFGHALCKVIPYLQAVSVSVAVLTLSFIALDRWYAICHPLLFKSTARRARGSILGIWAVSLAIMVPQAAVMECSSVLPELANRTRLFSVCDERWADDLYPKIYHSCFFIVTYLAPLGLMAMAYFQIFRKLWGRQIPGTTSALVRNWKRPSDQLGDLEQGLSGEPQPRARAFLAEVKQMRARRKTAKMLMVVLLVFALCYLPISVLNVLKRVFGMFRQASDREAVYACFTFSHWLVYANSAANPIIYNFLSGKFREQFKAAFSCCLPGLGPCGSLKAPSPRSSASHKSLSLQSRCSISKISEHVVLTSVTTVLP

[17] = as §1, with “Fluorescence-based” for “Homogeneous time resolved fluorescence (HTRF)-based”, “cell-based high throughput” for “cell-based”, “CHO” for “CHO-K1”; assay type: functional
[18] = target: T5, Orexin/Hypocretin receptor type 1; assay: as §2, with “Homogeneous Time Resolved Fluorescence (HTRF)-based” for “Fluorescence-based”; assay type: functional
[19] = target: Delta-type opioid receptor (Homo sapiens, UniProt P41143); assay: Counterscreen for agonists of heterodimerization of the mu 1 (OPRM1) and delta 1 (OPRD1) opioid receptors: Luminescence-based cell-based high throughput dose response assay to identify agonists of OPRD1 homodimerization. [Related pubchem assays (depositor defined):AID504326, AID504355, AID504692, AID504904, AID504905]; assay type: functional
Mu-type opioid receptor = Mu-type opioid receptor (Homo sapiens, UniProt P35372); assay: Counterscreen for agonists of heterodimerization of the mu 1 (OPRM1) and delta 1 (OPRD1) opioid receptors: Luminescence-based cell-based high throughput dose response assay to identify agonists of OPRM1 homodimerization.; assay type: functional;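 also: U2OS cells expressing OPRM1 and beta-arrestin as split beta-galactosidase partners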
[20] = target: 5-hydroxytryptamine receptor 5A (Homo sapiens, UniProt P47898); assay: Counterscreen for agonists of OPRM1-OPRD1 heterodimerization: luminescence-based cell-based high throughput dose response assay to identify agonists of 5-hydroxytryptamine (serotonin) 5A receptor (HTR5A). [Related pubchem assays (depositor defined):AID504326, AID504355, AID504692, AID504904, AID504905]; assay type: functional
[21] = loss of viability in HepG2 cells – cell-based, CellTiter-Glo, cherry-picked, cytotoxicity control for Shn3 inhibitor project, dose response (AID 624134); assay type: functional
[22] = non-specific 3'UTR reporter inhibition in Clone20-Shn3RL – cell-based, Renilla luciferase, cherry-picked, counter-screen for Shn3 inhibitor project, dose response (AID 624133); assay type: functional
[23] = reduction of Shn3 3'UTR-driven luciferase in osteoblasts – cell-based, Clone20 osteoblasts, firefly luciferase, cherry-picked, dose response (AID 624132); assay type: functional;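 also: firefly luciferase luminescence from reporter carrying the Shn3 3'UTR in osteoblasts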
Protein Wnt-3a = Protein Wnt-3a (Mus musculus, UniProt P27467); assay: antagonism of Wnt3a pathway luciferase reporter – Wnt-LIGHT cells, luminescence, selectivity assay for Gli-SUFU antagonist project, dose response (AID 651570); assay type: functional; conditions: read-out: IC50_Mean;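 also: Wnt-LIGHT reporter cells stimulated with conditioned medium from Wnt3a-producing cells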
Sequence of Protein Wnt-3a (P27467 whole entry): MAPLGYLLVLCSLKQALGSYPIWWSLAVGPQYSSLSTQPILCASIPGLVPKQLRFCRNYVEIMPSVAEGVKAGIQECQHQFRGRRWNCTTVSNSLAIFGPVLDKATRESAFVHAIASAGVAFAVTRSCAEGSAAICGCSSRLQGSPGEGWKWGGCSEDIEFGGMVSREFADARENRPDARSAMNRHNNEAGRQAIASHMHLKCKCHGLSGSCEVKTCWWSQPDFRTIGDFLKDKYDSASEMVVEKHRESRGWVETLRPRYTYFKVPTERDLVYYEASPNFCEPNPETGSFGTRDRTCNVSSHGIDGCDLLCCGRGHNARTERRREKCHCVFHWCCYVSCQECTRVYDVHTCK

Sequence of Cytochrome P450 2D6 (P10635 whole entry): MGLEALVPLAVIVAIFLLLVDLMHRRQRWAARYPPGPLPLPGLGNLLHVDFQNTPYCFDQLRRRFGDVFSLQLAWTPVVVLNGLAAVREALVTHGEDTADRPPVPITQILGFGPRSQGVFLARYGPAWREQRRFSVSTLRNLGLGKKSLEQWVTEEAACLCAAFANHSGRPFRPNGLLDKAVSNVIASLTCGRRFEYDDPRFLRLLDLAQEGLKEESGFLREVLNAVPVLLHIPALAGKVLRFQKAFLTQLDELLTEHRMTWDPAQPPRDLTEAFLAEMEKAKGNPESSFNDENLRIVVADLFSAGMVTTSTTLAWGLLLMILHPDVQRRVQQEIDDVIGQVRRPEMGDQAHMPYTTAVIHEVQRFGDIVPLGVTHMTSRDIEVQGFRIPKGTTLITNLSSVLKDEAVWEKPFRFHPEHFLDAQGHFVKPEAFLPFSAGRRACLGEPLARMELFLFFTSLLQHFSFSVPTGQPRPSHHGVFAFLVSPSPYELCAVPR
T3 sequence (P11940 whole entry, the tested form may be a part): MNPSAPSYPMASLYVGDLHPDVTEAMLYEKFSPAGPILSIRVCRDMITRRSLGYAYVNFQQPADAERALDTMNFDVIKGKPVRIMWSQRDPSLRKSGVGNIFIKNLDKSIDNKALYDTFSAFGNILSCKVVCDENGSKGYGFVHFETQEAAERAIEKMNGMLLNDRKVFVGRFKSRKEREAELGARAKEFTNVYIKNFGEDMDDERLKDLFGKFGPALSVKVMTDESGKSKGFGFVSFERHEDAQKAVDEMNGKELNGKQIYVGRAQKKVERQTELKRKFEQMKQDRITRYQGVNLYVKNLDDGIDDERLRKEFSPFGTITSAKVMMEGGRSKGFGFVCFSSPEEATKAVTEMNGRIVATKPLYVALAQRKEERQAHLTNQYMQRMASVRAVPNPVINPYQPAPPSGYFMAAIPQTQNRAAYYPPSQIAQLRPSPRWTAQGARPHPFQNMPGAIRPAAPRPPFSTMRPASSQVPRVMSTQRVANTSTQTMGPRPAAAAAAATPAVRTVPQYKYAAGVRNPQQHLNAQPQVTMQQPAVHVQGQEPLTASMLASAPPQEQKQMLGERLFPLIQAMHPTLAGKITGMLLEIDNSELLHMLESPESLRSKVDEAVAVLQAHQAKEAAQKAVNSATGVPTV
Sequence of Mu-type opioid receptor (P35372 whole entry): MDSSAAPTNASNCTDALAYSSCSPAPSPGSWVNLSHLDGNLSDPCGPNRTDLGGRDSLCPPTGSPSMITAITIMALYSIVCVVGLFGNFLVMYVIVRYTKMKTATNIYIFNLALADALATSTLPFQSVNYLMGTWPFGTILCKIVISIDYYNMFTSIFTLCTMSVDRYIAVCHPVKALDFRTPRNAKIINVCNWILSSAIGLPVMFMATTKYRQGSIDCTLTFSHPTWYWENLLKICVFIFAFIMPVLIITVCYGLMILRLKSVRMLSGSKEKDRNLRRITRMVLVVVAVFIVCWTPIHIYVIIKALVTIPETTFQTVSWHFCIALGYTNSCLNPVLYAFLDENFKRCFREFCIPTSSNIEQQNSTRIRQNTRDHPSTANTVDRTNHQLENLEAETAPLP
Sequence of Coagulation factor XII (P00748 20-372 limits assumed): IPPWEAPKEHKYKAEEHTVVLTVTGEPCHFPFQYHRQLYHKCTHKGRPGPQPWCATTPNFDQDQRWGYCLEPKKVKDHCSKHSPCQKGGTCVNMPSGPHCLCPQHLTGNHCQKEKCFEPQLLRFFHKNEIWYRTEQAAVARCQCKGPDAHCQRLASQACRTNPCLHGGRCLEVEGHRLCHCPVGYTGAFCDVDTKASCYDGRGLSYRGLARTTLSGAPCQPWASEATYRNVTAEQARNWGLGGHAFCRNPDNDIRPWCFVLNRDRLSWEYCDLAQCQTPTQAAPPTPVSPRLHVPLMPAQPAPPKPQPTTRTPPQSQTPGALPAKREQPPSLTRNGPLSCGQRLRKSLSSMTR
Sequence of Coagulation factor XII (P00748 373-615 limits assumed): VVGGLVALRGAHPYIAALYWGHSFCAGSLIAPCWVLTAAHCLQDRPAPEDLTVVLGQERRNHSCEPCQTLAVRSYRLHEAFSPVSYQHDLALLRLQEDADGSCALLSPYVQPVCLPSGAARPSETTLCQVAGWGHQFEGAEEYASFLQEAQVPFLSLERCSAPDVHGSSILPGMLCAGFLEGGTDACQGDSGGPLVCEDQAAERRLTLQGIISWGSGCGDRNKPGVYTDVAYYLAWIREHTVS
Sequence of FAD-linked sulfhydryl oxidase ALR (P55789 whole entry): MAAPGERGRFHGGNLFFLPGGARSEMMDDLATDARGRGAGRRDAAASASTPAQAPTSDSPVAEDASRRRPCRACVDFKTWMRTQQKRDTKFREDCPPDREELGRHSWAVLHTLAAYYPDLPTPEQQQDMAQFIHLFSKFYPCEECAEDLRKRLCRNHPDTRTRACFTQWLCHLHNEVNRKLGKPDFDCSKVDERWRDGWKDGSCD
Sequence of Cytochrome P450 2C9 (P11712 whole entry): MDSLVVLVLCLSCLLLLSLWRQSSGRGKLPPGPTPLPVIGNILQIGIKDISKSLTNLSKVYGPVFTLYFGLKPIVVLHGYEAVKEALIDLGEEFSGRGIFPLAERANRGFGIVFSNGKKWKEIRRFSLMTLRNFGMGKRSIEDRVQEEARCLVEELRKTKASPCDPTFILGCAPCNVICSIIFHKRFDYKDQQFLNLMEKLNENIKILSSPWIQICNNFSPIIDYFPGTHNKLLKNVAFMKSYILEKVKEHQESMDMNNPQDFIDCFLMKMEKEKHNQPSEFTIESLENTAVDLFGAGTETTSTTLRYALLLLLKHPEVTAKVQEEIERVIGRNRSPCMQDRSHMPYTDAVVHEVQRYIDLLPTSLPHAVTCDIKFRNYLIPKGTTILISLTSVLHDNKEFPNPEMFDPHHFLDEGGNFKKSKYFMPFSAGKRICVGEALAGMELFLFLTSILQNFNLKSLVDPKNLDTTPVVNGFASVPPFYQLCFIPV
Sequence of Delta-type opioid receptor (P41143 whole entry): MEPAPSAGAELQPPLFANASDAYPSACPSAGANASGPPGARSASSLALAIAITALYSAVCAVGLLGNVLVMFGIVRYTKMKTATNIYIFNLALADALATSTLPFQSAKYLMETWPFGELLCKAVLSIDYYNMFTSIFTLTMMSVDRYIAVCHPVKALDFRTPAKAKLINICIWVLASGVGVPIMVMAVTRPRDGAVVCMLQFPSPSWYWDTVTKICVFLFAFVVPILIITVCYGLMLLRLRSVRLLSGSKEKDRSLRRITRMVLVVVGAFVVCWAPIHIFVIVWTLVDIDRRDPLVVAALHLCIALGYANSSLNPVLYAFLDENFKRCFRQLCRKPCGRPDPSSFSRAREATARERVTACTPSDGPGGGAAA
Sequence of Cytochrome P450 2C19 (P33261 whole entry): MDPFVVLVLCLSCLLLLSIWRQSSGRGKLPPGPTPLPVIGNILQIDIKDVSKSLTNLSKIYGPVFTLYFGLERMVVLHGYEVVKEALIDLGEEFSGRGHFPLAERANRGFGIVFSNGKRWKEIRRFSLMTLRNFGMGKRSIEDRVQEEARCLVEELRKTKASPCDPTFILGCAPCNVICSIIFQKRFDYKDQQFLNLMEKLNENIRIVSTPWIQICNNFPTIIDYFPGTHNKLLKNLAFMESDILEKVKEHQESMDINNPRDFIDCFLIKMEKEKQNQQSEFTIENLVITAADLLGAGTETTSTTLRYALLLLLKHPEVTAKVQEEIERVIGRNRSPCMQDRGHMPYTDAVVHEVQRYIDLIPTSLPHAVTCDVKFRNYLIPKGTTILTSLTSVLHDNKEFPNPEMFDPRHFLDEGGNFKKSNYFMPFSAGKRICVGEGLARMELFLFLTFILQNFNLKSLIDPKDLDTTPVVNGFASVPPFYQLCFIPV
Sequence of 5-hydroxytryptamine receptor 5A (P47898 whole entry): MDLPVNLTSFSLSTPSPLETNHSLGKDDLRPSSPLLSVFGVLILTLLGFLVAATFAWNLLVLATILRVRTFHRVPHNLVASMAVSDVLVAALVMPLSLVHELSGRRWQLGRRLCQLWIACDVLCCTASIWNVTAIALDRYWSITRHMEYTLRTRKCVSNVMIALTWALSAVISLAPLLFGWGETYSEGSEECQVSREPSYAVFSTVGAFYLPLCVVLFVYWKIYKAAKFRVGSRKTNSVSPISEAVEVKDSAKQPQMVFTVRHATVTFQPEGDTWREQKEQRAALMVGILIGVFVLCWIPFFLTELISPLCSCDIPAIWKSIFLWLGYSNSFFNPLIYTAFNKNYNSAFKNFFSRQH

SMILES: Cc1oc(=O)c(NC(=O)c2cccc(Cl)c2)cc1C(=O)c1ccccc1
- AC50 [1]: 21.7 µM (active)
- AC50 [2]: 16.4 µM (active)
- EC50 [3]: 6.62 µM (active)
- EC50 (H4): 90.8 µM (active)
- AC50 [4]: 26 µM (active)

SMILES: CCOC(=O)CC1(NC(=O)c2cc(COc3cncc(Cl)c3)on2)CCCCC1
- IC50 [5]: > 79.4 µM (inactive)
- IC50 [6]: > 79.4 µM (inactive)
- IC50 [7]: > 79.4 µM (inactive)

SMILES: C[N+]1(CCC(=O)c2ccco2)C[C@H]2CC[C@H](CC2)C1 (some centres undefined)
- AC50 (Cytochrome P450 2D6): inconclusive

SMILES: COCCNC(=S)N/N=C(\C)c1ccccc1O
- IC50 [8]: > 66 µM (inactive)
- IC50 [9]: > 66 µM (inactive)
- EC50 [10]: 70.7 µM (not active)
- IC50 [11]: 1.01 µM (active)
- IC50 [12]: 2.44 µM (active)

SMILES: Cc1ccc(/C=N\Nc2nc3cc(Cl)ccc3[nH]2)o1
- AC50 (Cytochrome P450 2C19): 28.2 µM (inconclusive)
- EC50 (cells [13]): 27.6 µM (active)
- AC50 [14]: 0.289 µM (active)
- IC50 (Coagulation factor XII): > 50 µM (inactive)
- AC50 (Cytochrome P450 2C9): 7.08 µM (inconclusive)
- EC50 (cells [15]): > 350 µM (not active)

SMILES: C[C@@H]1CN([C@@H](C)CO)C(=O)c2cccc(NC(=O)Nc3ccc(F)cc3)c2O[C@@H]1CN(C)Cc1ccc(Oc2ccccc2)cc1
- IC50 (CHO-K1): > 66.2 µM (inactive)
- IC50 [16]: 11.2 µM (inactive)
- IC50 [17]: 23.7 µM (inactive)
- IC50 [18]: > 66.2 µM (inactive)

SMILES: O=C(NCCc1ccc(Cl)cc1)C1CCC(CNc2nc(=S)[nH]c3ccccc23)CC1 (centres undefined)
- EC50 [19]: > 92.5 µM (inactive)
- EC50 (Mu-type opioid receptor): > 92.5 µM (inactive)
- EC50 [20]: > 92.5 µM (inactive)

SMILES: CCc1c(C)nc2ncnn2c1N1CCN(S(=O)(=O)c2ccc(OC)cc2)CC1
- AC50 [21]: 5.28 µM (active)
- IC50 [11]: 0.936 µM (active)
- AC50 [22]: 3.52 µM (active)
- AC50 [23]: 1.16 µM (active)
- IC50 (Protein Wnt-3a): 5.74 µM (active)
- IC50 [12]: 1.35 µM (active)

SMILES: Cc1ccsc1/C=C1/SC(=O)N(CC(=O)N2CCOCC2)C1=O
- AC50 (Cytochrome P450 2D6): inconclusive

— ChEMBL document CHEMBL1201862, “PubChem BioAssay data set” (2004)
